Experimental data from patent US20240083933A1, “DISACCHARIDES FOR TREATING BONE DISEASES” (UNIVERSITE DE PICARDIE JULES VERNE, priority 2020, published 2024).

Assays:
HOb cells = assay: Alkaline phosphatase (ALP) enzymatic activity assay, HOb; type: cell-based, human; conditions: 7 days post-treatment, 30 μM
Excerpt: ALP is an enzyme synthesized by osteoblasts. It hydrolyses phosphoric esters which inhibit the mineralization by releasing a hydroxyl group and a phosphate. The osteoblasts produce matrix vesicles, reservoirs of alkaline phosphatases and ions, which, when released into the extracellular medium, would initiate the mineralization of the osteoid tissue by promoting the local concentrations of calcium ions and phosphates. Cells have been seeded in 6-well plates at 63700 cells/well for MC3T3-E1 and at 182000 cells/well for HOb.
After the PBS rinses, 50 μl of ALP Assay Buffer were added to the wells, the bottom of the wells was scraped and then the 50 μl were taken. A centrifugation for 3 minutes at 13000 G was carried out to remove the insoluble material. In a 96-well plate, 10 μl of each sample to be tested are placed with 70 μl of the ALP Assay buffer and 50 μl of the 5 mM pNPP solution. In parallel, the calibration range was prepared by placing, in the same 96-well plate. The reaction was incubated for 60 min at 25° C., shielded from light. The reaction was stopped by adding 20 μl of the Stop Solution. The optical density was measured at 405 nm.
After the ALP enzymatic activity assay, a protein assay was performed in order to normalize the results of the ALP assay depending on the number of proteins. […] The optical density was measured at 565 nm to determine the amount of proteins.

[1] = test system: bone defects in the skull of rats; assay: Cranial bone defect model with implanted support; type: in vivo; set-up: key to BMD / BV/TV: =: no difference; N/A: not applicable; *p ≤ 0.05; **p ≤ 0.01; ***p ≤ 0.001
Description: The Sprague-Dawley rats are provided by Janvier Labs (Le Genest-Saint-Isle, France) and housed in the PLATAN animal facility of the UPJV. The rats were maintained under a 12-hour day-night cycle, at a temperature of 22±2° C. and 50% humidity.
In order to assess the osteoinductive capacity of the disaccharide via the acceleration of the phenomenon of bone reconstruction and to determine the concentration of the optimal DP2 molecule, and the nature of the most adapted support under the physiological conditions of the fracture consolidation operation (inflammatory reaction, cellular activity), 2 bone defects were made in the skull of rats.
Three different types of supports were tested and two different concentrations of DP2.
In order to reduce the number of used rats, two bone defects were made per rat; one defect was left blank and was used as an internal control for each rat. Thus, the support-only group is considered the control of the experiment. […] For the support-only condition, the latter is mixed with sterile saline solution.
After being assigned to one of the 12 groups shown above, the rat was anesthetized using IsoVet (isoflurane) in the mask (5% in the induction and 2 to 3% in maintenance dose). After 5 min, a nociception test was performed by pinching the paw or tail of the animal to check the effectiveness of the anesthesia. On the workstation, a shaving and a disinfection with vetedine were then carried out next to the incision.
A local anesthesia was also carried out with 7 mg/kg of 2% lidocaine (20 mg/mL) diluted to 5 mg/ml.
On the workstation, the incision of the skin with a 15 blade cold scalpel along the midline was performed, followed by the detachment of the subcutaneous tissues. Then, the incision along the midline and the lifting and lateral displacement of the periosteum were made. […] Saline solution was used during the milling steps. The implantation of the support, depending on the group, on the left side was made; the right side, without support, was used as a control to assess the effect of the lesion and the natural repair processes without the presence of support. The periosteum was put back in place and sutured with 7/0 skin suture. The skin was also put back in place and closed with 4/0 skin suture.
The rat was injected with buprenorphine at a dose of 0.05 mg/kg subcutaneously as an analgesic. After awakening, the rat was returned to its conventional housing conditions, by putting 1 rat per cage. The animals were supervised daily and animal welfare monitoring was carried out.

[2] = Bio-oss support + DP2R2 3 mM vs Bio-oss only, D 14
[3] = Bio-oss support + DP2R2 3 mM vs Bio-oss only, D 29
[4] = Bio-oss support + DP2R2 3 mM vs Bio-oss only, D 63
[5] = Bio-oss support + DP2R2 3 mM vs Bio-oss only, D 91
[6] = Bio-oss support + DP2R2 9 mM vs Bio-oss only, D 14
[7] = Bio-oss support + DP2R2 9 mM vs Bio-oss only, D 29
[8] = Bio-oss support + DP2R2 9 mM vs Bio-oss only, D 63
[9] = Bio-oss support + DP2R2 9 mM vs Bio-oss only, D 91
[10] = Collagen support + DP2R2 3 mM vs Collagen only, D 14
[11] = Collagen support + DP2R2 3 mM vs Collagen only, D 29
[12] = Collagen support + DP2R2 3 mM vs Collagen only, D 63
[13] = Collagen support + DP2R2 3 mM vs Collagen only, D 91
[14] = Collagen support + DP2R2 9 mM vs Collagen only, D 14
[15] = Collagen support + DP2R2 9 mM vs Collagen only, D 29
[16] = Collagen support + DP2R2 9 mM vs Collagen only, D 63
[17] = Collagen support + DP2R2 9 mM vs Collagen only, D 91
[18] = MBCP support + DP2R2 3 mM vs MBCP only, D 14
[19] = MBCP support + DP2R2 3 mM vs MBCP only, D 29
[20] = MBCP support + DP2R2 3 mM vs MBCP only, D 63
[21] = MBCP support + DP2R2 3 mM vs MBCP only, D 91
[22] = MBCP support + DP2R2 9 mM vs MBCP only, D 14
[23] = MBCP support + DP2R2 9 mM vs MBCP only, D 29
[24] = MBCP support + DP2R2 9 mM vs MBCP only, D 63
[25] = MBCP support + DP2R2 9 mM vs MBCP only, D 91

SMILES: CCCO[C@H]1OC(CO)[C@@H](O[C@@H]2OC(CO)[C@@H](O)C(O)C2NC(C)=O)C(O)C1OC(C)=O (stereo partly drawn) [DP2, n-propyl, 2-O-acetyl-α-D-Glucopyranoside, 4-O-(2-acetamido-2-deoxy-β-D-glucopyranosyl)]
- ALP enzymatic activity relative to the mineralized medium alone (100%) (HOb cells; listed as DP2R0): 210.494±14.979%
- ALP enzymatic activity relative to the mineralized medium alone (100%) (HOb cells; listed as DP2R2): 149.749%
- BMD [1, 2]: =
- BV/TV [1, 2]: =
- BMD [1, 3]: =
- BV/TV [1, 3]: =
- BMD [1, 4]: =
- BV/TV [1, 4]: =
- BMD [1, 5]: =
- BV/TV [1, 5]: =
- BMD [1, 6]: =
- BV/TV [1, 6]: =
- BMD [1, 7]: =
- BV/TV [1, 7]: =
- BMD [1, 8]: =
- BV/TV [1, 8]: =
- BMD [1, 9]: =
- BV/TV [1, 9]: =
- BMD [1, 10]: ↑*
- BV/TV [1, 10]: =
- BMD [1, 11]: =
- BV/TV [1, 11]: =
- BMD [1, 12]: =
- BV/TV [1, 12]: =
- BMD [1, 13]: =
- BV/TV [1, 13]: =
- BMD [1, 14]: =
- BV/TV [1, 14]: =
- BMD [1, 15]: =
- BV/TV [1, 15]: =
- BMD [1, 16]: =
- BV/TV [1, 16]: =
- BMD [1, 17]: =
- BV/TV [1, 17]: =
- BMD [1, 18]: =
- BV/TV [1, 18]: =
- BMD [1, 19]: ↑*
- BV/TV [1, 19]: =
- BMD [1, 20]: ↑*
- BV/TV [1, 20]: =
- BMD [1, 21]: ↑***
- BV/TV [1, 21]: =
- BMD [1, 22]: =
- BV/TV [1, 22]: =
- BMD [1, 23]: ↑*
- BV/TV [1, 23]: =
- BMD [1, 24]: ↑***
- BV/TV [1, 24]: =
- BMD [1, 25]: ↑*
- BV/TV [1, 25]: =
- bone mineralization ([1]; collagen+DP2 [3 mM], D14): increases the bone mineralization
- in-vivo toxic effect (survival, infection, hematoma, necrosis at defect sites) ([1]; rats, 3 months after implantation): does not have any in-vivo toxic effect
- bone mineralization relative MBCP alone ([1]; the 2 MBCP+DP2 groups (3 mM, 9 mM), from D29 post-surgery): increase the bone mineralization
